Active and inactive are the calls of the source. The calls are words filed in the database; no cut-off is given here.
What was measured:
[1] = molecular target: DNA topoisomerase 2-beta (Homo sapiens, UniProt Q02880); assay: Inhibition of human DNA topoisomerase 2 beta assessed as relaxation of supercoiled plasmid pBR322 DNA incubated for 30 mins by ethidium bromide staining based agarose gel electrophoresis
[2] = Thermodynamic aqueous solubility of compound in PBS buffer at pH 7.4 at 25 degreeC measured after 24 hrs by UPLC analysis; type: physicochemical; settings: read-out: Therm_solubility
[3] = molecular target: T1, DNA topoisomerase 1 (Homo sapiens, UniProt P11387); assay: Inhibition of human DNA Topoisomerase 1 assessed as relaxation of supercoiled plasmid pBR322 DNA incubated for 30 mins by ethidium bromide staining based agarose gel electrophoresis
T1 sequence (P11387 whole entry): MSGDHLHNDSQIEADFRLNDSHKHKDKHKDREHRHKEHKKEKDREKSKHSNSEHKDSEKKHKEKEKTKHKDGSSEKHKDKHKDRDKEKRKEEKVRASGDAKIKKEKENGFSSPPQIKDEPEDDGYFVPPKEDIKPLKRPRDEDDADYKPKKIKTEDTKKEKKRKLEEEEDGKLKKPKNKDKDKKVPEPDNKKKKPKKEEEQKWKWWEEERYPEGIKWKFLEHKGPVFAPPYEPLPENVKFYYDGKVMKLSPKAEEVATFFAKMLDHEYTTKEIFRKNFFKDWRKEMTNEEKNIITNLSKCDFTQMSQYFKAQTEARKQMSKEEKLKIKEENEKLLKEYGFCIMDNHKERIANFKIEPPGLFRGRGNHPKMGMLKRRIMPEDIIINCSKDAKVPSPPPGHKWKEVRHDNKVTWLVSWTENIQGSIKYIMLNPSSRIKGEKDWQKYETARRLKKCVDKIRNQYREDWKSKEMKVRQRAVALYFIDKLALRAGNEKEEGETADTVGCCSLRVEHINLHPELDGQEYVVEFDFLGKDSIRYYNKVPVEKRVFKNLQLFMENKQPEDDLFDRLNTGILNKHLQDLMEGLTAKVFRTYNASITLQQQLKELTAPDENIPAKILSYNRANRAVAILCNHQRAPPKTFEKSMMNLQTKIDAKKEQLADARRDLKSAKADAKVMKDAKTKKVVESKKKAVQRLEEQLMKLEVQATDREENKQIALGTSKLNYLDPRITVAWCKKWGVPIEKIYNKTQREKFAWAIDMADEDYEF

[4] = Metabolic stability in rat liver S9 fraction assessed as half life at 100 uM measured upto 120 mins in presence of NADPH by HPLC analysis; type: ADME, subcellular
[5] = molecular target: T2, DNA topoisomerase 2-alpha (Homo sapiens, UniProt P11388); assay: Inhibition of human DNA topoisomerase 2 alpha assessed as relaxation of supercoiled plasmid pNO1 DNA incubated for 30 mins by fluorescence based analysis
[6] = tested on: SW-620; assay: Cytotoxicity against human SW620 cells assessed as reduction in cell viability at 10 uM by MTT assay; type: functional, cell-based
[7] = tested on: KM12; assay: Cytotoxicity against human KM12 cells assessed as reduction in cell viability at 10 uM by MTT assay; type: functional, cell-based
[8] = tested on: HCT-15; assay: Cytotoxicity against human HCT-15 cells assessed as reduction in cell viability at 10 uM by MTT assay; type: functional, cell-based
[9] = tested on: SR; assay: Cytotoxicity against human SR cells assessed as reduction in cell viability at 10 uM by MTT assay; type: functional, cell-based
[10] = tested on: HCT-116; assay: Cytotoxicity against human HCT-116 cells assessed as reduction in cell viability at 10 uM by MTT assay; type: functional, cell-based
[11] = molecular target: T2, DNA topoisomerase 2-alpha; assay: Inhibition of human DNA topoisomerase 2 alpha assessed as ATP hydrolysis measured for 30 mins by absorbance based assay
[12] = tested on: COLO 205; assay: Cytotoxicity against human COLO 205 cells assessed as reduction in cell viability at 10 uM by MTT assay; type: functional, cell-based
[13] = tested on: HL-60; assay: Cytotoxicity against human HL-60 cells assessed as reduction in cell viability at 10 uM by MTT assay; type: functional, cell-based
[14] = tested on: CCRF-CEM; assay: Cytotoxicity against human CCRF-CEM cells assessed as reduction in cell viability at 10 uM by MTT assay; type: functional, cell-based
[15] = tested on: HT-29; assay: Cytotoxicity against human HT-29 cells assessed as reduction in cell viability at 10 uM by MTT assay; type: functional, cell-based
[16] = tested on: K562; assay: Cytotoxicity against human K562 cells assessed as reduction in cell viability at 10 uM by MTT assay; type: functional, cell-based
[17] = tested on: MOLT-4; assay: Cytotoxicity against human MOLT-4 cells assessed as reduction in cell viability at 10 uM by MTT assay; type: functional, cell-based
[18] = tested on: HCC 2998; assay: Cytotoxicity against human HCC 2998 cells assessed as reduction in cell viability at 10 uM by MTT assay; type: functional, cell-based

T2 sequence (P11388 whole entry): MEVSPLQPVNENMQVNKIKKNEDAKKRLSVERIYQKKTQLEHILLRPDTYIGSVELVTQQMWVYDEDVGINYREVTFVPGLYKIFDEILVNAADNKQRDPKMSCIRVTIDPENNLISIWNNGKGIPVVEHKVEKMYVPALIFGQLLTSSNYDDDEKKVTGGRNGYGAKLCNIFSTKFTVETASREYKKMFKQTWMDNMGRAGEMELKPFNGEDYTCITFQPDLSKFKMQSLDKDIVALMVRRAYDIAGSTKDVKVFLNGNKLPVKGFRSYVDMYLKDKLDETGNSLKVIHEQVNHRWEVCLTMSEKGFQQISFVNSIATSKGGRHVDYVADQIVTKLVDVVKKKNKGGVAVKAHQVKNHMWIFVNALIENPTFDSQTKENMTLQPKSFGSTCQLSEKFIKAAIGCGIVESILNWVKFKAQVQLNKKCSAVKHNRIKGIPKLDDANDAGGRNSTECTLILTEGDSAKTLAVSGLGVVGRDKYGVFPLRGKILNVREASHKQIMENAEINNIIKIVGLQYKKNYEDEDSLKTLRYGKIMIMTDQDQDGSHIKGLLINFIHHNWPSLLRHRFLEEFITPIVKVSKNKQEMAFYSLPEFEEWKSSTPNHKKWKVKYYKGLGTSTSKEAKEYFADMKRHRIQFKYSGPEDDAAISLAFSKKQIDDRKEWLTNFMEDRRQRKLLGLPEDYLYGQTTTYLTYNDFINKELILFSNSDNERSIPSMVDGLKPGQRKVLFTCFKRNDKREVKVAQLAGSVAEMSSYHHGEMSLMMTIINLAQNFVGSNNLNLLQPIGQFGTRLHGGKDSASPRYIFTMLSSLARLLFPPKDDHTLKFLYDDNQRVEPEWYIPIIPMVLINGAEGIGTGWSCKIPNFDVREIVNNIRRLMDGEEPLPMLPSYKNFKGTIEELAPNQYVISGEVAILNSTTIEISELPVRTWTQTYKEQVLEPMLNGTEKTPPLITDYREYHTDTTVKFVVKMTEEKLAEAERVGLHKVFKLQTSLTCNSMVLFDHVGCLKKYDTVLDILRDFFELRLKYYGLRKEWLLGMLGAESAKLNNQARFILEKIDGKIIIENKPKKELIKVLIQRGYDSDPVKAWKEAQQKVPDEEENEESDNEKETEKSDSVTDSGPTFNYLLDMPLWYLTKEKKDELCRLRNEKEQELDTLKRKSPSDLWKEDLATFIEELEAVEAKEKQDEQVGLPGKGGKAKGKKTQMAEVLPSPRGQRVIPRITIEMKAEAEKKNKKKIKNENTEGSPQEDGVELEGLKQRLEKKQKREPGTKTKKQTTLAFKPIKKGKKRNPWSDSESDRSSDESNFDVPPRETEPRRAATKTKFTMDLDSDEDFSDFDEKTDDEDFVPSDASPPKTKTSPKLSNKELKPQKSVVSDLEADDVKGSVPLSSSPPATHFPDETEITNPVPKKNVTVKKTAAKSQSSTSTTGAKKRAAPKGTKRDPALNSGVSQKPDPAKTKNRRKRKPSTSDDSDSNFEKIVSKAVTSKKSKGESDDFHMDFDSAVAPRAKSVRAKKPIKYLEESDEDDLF
Chain of DNA topoisomerase 2-beta (Q02880 whole entry): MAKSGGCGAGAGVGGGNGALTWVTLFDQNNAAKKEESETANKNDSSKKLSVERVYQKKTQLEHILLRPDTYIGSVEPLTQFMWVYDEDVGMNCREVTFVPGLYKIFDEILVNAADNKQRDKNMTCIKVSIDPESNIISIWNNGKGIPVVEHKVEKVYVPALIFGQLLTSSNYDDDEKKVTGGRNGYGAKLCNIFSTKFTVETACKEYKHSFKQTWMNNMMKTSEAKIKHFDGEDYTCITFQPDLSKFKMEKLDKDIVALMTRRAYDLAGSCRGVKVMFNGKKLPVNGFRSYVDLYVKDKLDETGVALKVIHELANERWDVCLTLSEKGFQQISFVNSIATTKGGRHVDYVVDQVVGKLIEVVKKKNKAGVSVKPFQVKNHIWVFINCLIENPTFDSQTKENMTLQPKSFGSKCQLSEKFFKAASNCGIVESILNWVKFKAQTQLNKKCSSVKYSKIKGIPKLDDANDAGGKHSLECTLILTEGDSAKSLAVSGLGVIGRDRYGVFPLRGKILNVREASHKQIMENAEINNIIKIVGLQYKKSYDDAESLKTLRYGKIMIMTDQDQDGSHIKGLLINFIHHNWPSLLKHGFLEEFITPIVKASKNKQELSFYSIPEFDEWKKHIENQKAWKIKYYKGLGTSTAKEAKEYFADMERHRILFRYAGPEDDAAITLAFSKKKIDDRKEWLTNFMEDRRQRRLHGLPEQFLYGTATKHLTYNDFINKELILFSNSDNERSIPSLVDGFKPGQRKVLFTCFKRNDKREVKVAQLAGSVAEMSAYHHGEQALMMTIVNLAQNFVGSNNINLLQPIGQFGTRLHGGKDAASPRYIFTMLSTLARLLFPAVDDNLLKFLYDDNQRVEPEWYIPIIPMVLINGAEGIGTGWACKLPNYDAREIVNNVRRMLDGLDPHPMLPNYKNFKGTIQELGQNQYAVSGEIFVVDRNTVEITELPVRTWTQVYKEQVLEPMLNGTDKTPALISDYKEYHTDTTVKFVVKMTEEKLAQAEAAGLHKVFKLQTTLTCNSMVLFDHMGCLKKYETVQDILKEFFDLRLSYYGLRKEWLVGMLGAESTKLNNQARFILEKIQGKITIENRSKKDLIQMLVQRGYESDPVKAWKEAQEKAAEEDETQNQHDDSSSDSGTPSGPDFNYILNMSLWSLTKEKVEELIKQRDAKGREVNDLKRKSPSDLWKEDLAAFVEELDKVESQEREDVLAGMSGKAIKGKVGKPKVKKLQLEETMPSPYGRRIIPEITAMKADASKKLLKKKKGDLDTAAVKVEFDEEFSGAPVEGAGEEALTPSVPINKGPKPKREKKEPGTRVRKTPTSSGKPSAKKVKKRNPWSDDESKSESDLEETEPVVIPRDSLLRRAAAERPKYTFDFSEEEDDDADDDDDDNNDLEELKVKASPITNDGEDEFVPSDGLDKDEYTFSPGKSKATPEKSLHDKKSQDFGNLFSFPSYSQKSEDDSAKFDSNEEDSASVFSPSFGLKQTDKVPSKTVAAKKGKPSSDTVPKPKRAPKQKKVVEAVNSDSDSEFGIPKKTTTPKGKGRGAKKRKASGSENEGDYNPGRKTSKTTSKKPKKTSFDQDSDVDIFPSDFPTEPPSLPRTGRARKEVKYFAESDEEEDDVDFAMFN

Cc1[nH]c(C(=O)Nc2ccc(C(N)=O)cc2OCc2ccc(C(=O)NCCN)cc2)c(Cl)c1Cl.Cl.Cl
IC50 [1]: 550 nM
solubility thermodynamic at 24 h [2]: 9.2 µM
IC50 [3]: > 5 µM
half-life at 100 µM [4]: 100 min
IC50 [5]: 0.67 µM

Cc1[nH]c(C(=O)Nc2ccc(C(=O)NCCN)cc2OC(C)C)c(Cl)c1Cl.Cl
Activity [6]: Active
Activity [7]: Active
Activity [8]: Active
Activity [9]: Active
solubility thermodynamic at 24 h [2]: 16 µM
Activity [10]: Active
IC50 [11]: 2800 nM
Activity [12]: Active
Activity [13]: Active
Activity [14]: Active
half-life at 100 µM [4]: > 300 min
IC50 [5]: 6 µM
Activity [15]: Active
Activity [16]: Active
Activity [17]: Active
Activity [18]: Active
